Measurements as given in patent US20190112317A1, “ACTIVATORS OF AUTOPHAGIC FLUX AND PHOSPHOLIPASE D AND CLEARANCE OF PROTEIN AGGREGATES INCLUDING TAU AND TREATMENT OF PROTEINOPATHIES” (The Trustees of Columbia University in the City of New York, priority 2015, published 2019).

Assay: Photodiode array (PDA) detection of compound in mouse brain
Format: in vivo
Settings: PDA spectrum, FIG. 1
Description: FIG. 1 is a graph showing a photodiode array (PDA) spectrum of WHYKD8 in mouse brain.
A photodiode array (PDA) was used to detect WHYKD8 in mouse brain (FIG. 1).

SMILES: Oc1ccc(CCNc2ncnc3ccc(Cl)cc23)cc1 [WHYKD8]
- Detection in mouse brain: readily detected
